From patent US9895346B2, “Applications of substituent benzyloxy group containing ether compounds for preparing antitumor drugs” (Sinochem Corporation, priority 2013, dated 2018)

Assays:
[1] = tested on: prostate cancer cell line LNCap; assay: In vitro cell inhibition assay (crystal violet), prostate cancer LNCap; type: cell-based, human
Description: (§1) In vitro Cell inhibition assay is as follows:
(§2) The human cancer cell lines used for this assay were bladder cancer J82, T24, prostate cancer LNCap, PC-3, lung cancer A549, H157, H460, H520, colon cancer HCT8, HCT116, RkO, and leukemia HL-60, etc.
(§3) In vitro cell culture technology was selected for the determination of inhibition rate bladder cancer cell lines J82 and T24, prostate cancer cell lines LNCap and PC-3, lung cancer cell lines A549, H157, H460 and H520. 1000 to 3000 cells were inoculated to 24-well plate, followed by addition of 1 mL culture medium well known to researchers in this field to each well, the cells were cultured in 5% incubator for 24 hours at 37° C., then the different concentration compounds and controls were added to each well. It should be noted that the added volume is not more than 0.5% of total volume. After completion of addition, the cells continued being cultured in incubator for one week, the culture medium was removed and washed by cold PBS of 1 mL once, and then fixed for 10 minutes at room temperature with 1% formalin, followed by wash with PBS of 1 mL. After fixation, stain was carried out with 0.1% crystal violet for 30 minutes. 0.1% crystal violet was recycled. The stained cells were washed gently with deionized water, dried at room temperature and kepted. The inhibition rate was calculated according to the foiling equation. The controls are Selumetinib (AZD6244), Gefitinib, Cisplatin. Inhibition rate=number of left cells each treatment/number of left cells of untreated control×100%

[2] = tested on: lung cancer cell line H157; assay: In vitro cell inhibition assay (crystal violet), lung cancer H157; type: cell-based, human
Description: as §1, §2, §3

[3] = tested on: lung cancer cell line H460; assay: In vitro cell inhibition assay (crystal violet), lung cancer H460; type: cell-based, human
Procedure, shortened: (§4)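 1000-3000 cells per well grown 24 h at 37 °C, then exposed to compound for one week (vehicle ≤0.5% of volume). Cells formalin-fixed and stained with 0.1% crystal violet. Inhibition rate = remaining cells in treated wells / remaining cells in untreated control × 100%.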

[4] = tested on: lung cancer cell line A549; assay: In vitro cell inhibition assay (crystal violet), lung cancer A549; type: cell-based, human
Procedure, shortened: as §4

colon cancer HCT8 = assay: In vitro cell inhibition assay, colon cancer HCT8; type: cell-based, human
Description: as §1, §2

colon cancer RkO = assay: In vitro cell inhibition assay, colon cancer RkO; type: cell-based, human
Description: as §1, §2

[5] = tested on: bladder cancer cell line J82; assay: In vitro cell inhibition assay (crystal violet), bladder cancer J82; type: cell-based, human
Description: as §1, §2, §3

[6] = tested on: lung cancer cell line H520; assay: In vitro cell inhibition assay (crystal violet), lung cancer H520; type: cell-based, human
Procedure, shortened: as §4

colon cancer HCT116 = assay: In vitro cell inhibition assay, colon cancer HCT116; type: cell-based, human
Description: as §1, §2

[7] = tested on: prostate cancer cell line PC-3; assay: In vitro cell inhibition assay (crystal violet), prostate cancer PC-3; type: cell-based, human
Description: as §1, §2, §3

[8] = tested on: bladder cancer cell line T24; assay: In vitro cell inhibition assay (crystal violet), bladder cancer T24; type: cell-based, human
Description: as §1, §2, §3

[9] = tested on: human leukemia HL-60 cells; assay: Proliferation inhibition of human leukemia HL-60 cells, MTT method; type: cell-based; settings: 48 h incubation, OPTI-MEM medium
Experimental: The inhibition rate of human leukemia HL-60 cells was evaluated by regular MTT method. The human leukemia HL-60 cells were picked up from cell incubator, after washed for twice using PBS, cells were digested by 0.25% trypsin, and then add medium to terminate the digestion. After cells were collected using centrifuge and re-suspended, counting cells under inverted microscope and adding medium to make a density which was 5×10^4 cells/mL. After 100 μL aliquots were added to each well of 96-well microtiter plates, cells were cultured in 5% incubator for overnight at 37° C., then the different concentration compounds were added to each well. After incubation for 48 h, MTT solution was added to each well and plates were then incubated for 4 h. The MTT tetrazolium was reduced to formazan by living cells. Then the formazan crystals were dissolved though adding DMSO to each well. The absorbance was read at 570 nm with a microplate reader.

[10] = Homo sapiens, 5.0 μM, read-out: Inhibition rate on human cancer cells

## Cn1cnc2c(F)c(Nc3ccc(Br)cc3Cl)c(C(=O)NOCCO)cc21 [Selumetinib, reference compound]
[1]; [10]
  inhibition at 5 µM: 20%
[2]; Homo sapiens, NCI-H157, H157, 5.0 μM, read-out: Inhibition rate on human cancer cells
  inhibition at 5 µM: 20%
[3]; Homo sapiens, NCI-H460, H460, 0.25 μM, read-out: Inhibition rate on human cancer cells
  inhibition at 0.25 µM: 0%
[3]; Homo sapiens, NCI-H460, H460, 0.5 μM, read-out: Inhibition rate on human cancer cells
  inhibition at 0.5 µM: 0%
[3]; Homo sapiens, NCI-H460, H460, 1.0 μM, read-out: Inhibition rate on human cancer cells
  inhibition at 1 µM: 0%
[3]; Homo sapiens, NCI-H460, H460, 2.5 μM, read-out: Inhibition rate on human cancer cells
  inhibition at 2.5 µM: 0%
[3]; Homo sapiens, NCI-H460, H460, 5.0 μM, read-out: Inhibition rate on human cancer cells
  inhibition at 5 µM: 60%
[4]; Homo sapiens, A549, 0.25 μM, read-out: Inhibition rate on human cancer cells
  inhibition at 0.25 µM: 0%
[4]; Homo sapiens, A549, 0.5 μM, read-out: Inhibition rate on human cancer cells
  inhibition at 0.5 µM: 0%
[4]; Homo sapiens, A549, 1.0 μM, read-out: Inhibition rate on human cancer cells
  inhibition at 1 µM: 0%
[4]; Homo sapiens, A549, 2.5 μM, read-out: Inhibition rate on human cancer cells
  inhibition at 2.5 µM: 0%
[4]; Homo sapiens, A549, 5.0 μM, read-out: Inhibition rate on human cancer cells
  inhibition at 5 µM: 10%
Colon cancer HCT8; Homo sapiens, HCT 8, 1.0 μM, read-out: Inhibition rate on human cancer cells
  inhibition at 1 µM: 20%
Colon cancer HCT8; Homo sapiens, HCT 8, 2.5 μM, read-out: Inhibition rate on human cancer cells
  inhibition at 2.5 µM: 40%
Colon cancer HCT8; Homo sapiens, HCT 8, 5.0 μM, read-out: Inhibition rate on human cancer cells
  inhibition at 5 µM: 50%
Colon cancer RkO; Homo sapiens, 0.25 μM, read-out: Inhibition rate on human cancer cells
  inhibition at 0.25 µM: 30%
Colon cancer RkO; Homo sapiens, 0.5 μM, read-out: Inhibition rate on human cancer cells
  inhibition at 0.5 µM: 80%
Colon cancer RkO; Homo sapiens, 1.0 μM, read-out: Inhibition rate on human cancer cells
  inhibition at 1 µM: 85%
Colon cancer RkO; Homo sapiens, 2.5 μM, read-out: Inhibition rate on human cancer cells
  inhibition at 2.5 µM: 90%
Colon cancer RkO; [10]
  inhibition at 5 µM: 95%
[5]; Homo sapiens, J82, 5.0 μM, read-out: Inhibition rate on human cancer cells
  inhibition at 5 µM: 70%
[6]; Homo sapiens, NCI-H520, H520, 5.0 μM, read-out: Inhibition rate on human cancer cells
  inhibition at 5 µM: 20%
Colon cancer HCT116; Homo sapiens, HCT 116, 0.25 μM, read-out: Inhibition rate on human cancer cells
  inhibition at 0.25 µM: 50%
Colon cancer HCT116; Homo sapiens, HCT 116, 0.5 μM, read-out: Inhibition rate on human cancer cells
  inhibition at 0.5 µM: 75%
Colon cancer HCT116; Homo sapiens, HCT 116, 1.0 μM, read-out: Inhibition rate on human cancer cells
  inhibition at 1 µM: 80%
Colon cancer HCT116; Homo sapiens, HCT 116, 2.5 μM, read-out: Inhibition rate on human cancer cells
  inhibition at 2.5 µM: 85%
Colon cancer HCT116; Homo sapiens, HCT 116, 5.0 μM, read-out: Inhibition rate on human cancer cells
  inhibition at 5 µM: 90%
[7]; Homo sapiens, PC-3, 5.0 μM, read-out: Inhibition rate on human cancer cells
  inhibition at 5 µM: 0%
[8]; Homo sapiens, T24, 5.0 μM, read-out: Inhibition rate on human cancer cells
  inhibition at 5 µM: 70%

## CCCCc1c(C)c2ccc(OCc3ccccc3/C(=C\OC)C(=O)OC)cc2oc1=O [Compound 28-72, coumoxystrobin]
[1]; 0.25 μM
  Inhibition rate on human cancer cells: 100%
[1]; 0.5 μM
  Inhibition rate on human cancer cells: 100%
[1]; 1.0 μM
  Inhibition rate on human cancer cells: 100%
[1]; 2.5 μM
  Inhibition rate on human cancer cells: 100%
[1]; 5.0 μM
  Inhibition rate on human cancer cells: 100%
[2]; H157, 0.25 μM
  Inhibition rate on human cancer cells: >90%
[2]; H157, 0.5 μM
  Inhibition rate on human cancer cells: 100%
[2]; H157, 1.0 μM
  Inhibition rate on human cancer cells: 100%
[2]; H157, 2.5 μM
  Inhibition rate on human cancer cells: 100%
[2]; H157, 5.0 μM
  Inhibition rate on human cancer cells: 100%
[9]; concentration 1 μM
  Proliferation inhibitory effect on human leukemia HL-60 cell (%): 45.3%
[9]; concentration 10 μM
  Proliferation inhibitory effect on human leukemia HL-60 cell (%): 47.9%
[9]; concentration 100 μM
  Proliferation inhibitory effect on human leukemia HL-60 cell (%): 54.4%
[3]; H460, 0.25 μM
  Inhibition rate on human cancer cells: 95%
[3]; H460, 0.5 μM
  Inhibition rate on human cancer cells: 100%
[3]; H460, 1.0 μM
  Inhibition rate on human cancer cells: 100%
[3]; H460, 2.5 μM
  Inhibition rate on human cancer cells: 100%
[3]; H460, 5.0 μM
  Inhibition rate on human cancer cells: 100%
[4]; A549, 0.5 μM
  Inhibition rate on human cancer cells: 90%
[4]; A549, 1.0 μM
  Inhibition rate on human cancer cells: 95%
[4]; A549, 2.5 μM
  Inhibition rate on human cancer cells: 100%
[4]; A549, 5.0 μM
  Inhibition rate on human cancer cells: 100%
Colon cancer HCT8; HCT 8, 0.5 μM
  Inhibition rate on human cancer cells: 95%
Colon cancer HCT8; HCT 8, 1.0 μM
  Inhibition rate on human cancer cells: 100%
Colon cancer HCT8; HCT 8, 2.5 μM
  Inhibition rate on human cancer cells: 100%
Colon cancer HCT8; HCT 8, 5.0 μM
  Inhibition rate on human cancer cells: 100%
Colon cancer RkO; 0.25 μM
  Inhibition rate on human cancer cells: 95%
Colon cancer RkO; 0.5 μM
  Inhibition rate on human cancer cells: 100%
Colon cancer RkO; 1.0 μM
  Inhibition rate on human cancer cells: 100%
Colon cancer RkO; 2.5 μM
  Inhibition rate on human cancer cells: 100%
Colon cancer RkO; 5.0 μM
  Inhibition rate on human cancer cells: 100%
[5]; J82, 0.25 μM
  Inhibition rate on human cancer cells: 70%
[5]; J82, 0.5 μM
  Inhibition rate on human cancer cells: 90%
[5]; J82, 1.0 μM
  Inhibition rate on human cancer cells: 95%
[5]; J82, 2.5 μM
  Inhibition rate on human cancer cells: 100%
[5]; J82, 5.0 μM
  Inhibition rate on human cancer cells: 100%
[6]; H520, 0.25 μM
  Inhibition rate on human cancer cells: >90%
[6]; H520, 0.5 μM
  Inhibition rate on human cancer cells: 100%
[6]; H520, 1.0 μM
  Inhibition rate on human cancer cells: 100%
[6]; H520, 2.5 μM
  Inhibition rate on human cancer cells: 100%
[6]; H520, 5.0 μM
  Inhibition rate on human cancer cells: 100%
Colon cancer HCT116; HCT 116, 0.25 μM
  Inhibition rate on human cancer cells: 80%
Colon cancer HCT116; HCT 116, 0.5 μM
  Inhibition rate on human cancer cells: 95%
Colon cancer HCT116; HCT 116, 1.0 μM
  Inhibition rate on human cancer cells: 99%
Colon cancer HCT116; HCT 116, 2.5 μM
  Inhibition rate on human cancer cells: 100%
Colon cancer HCT116; HCT 116, 5.0 μM
  Inhibition rate on human cancer cells: 100%
[7]; PC-3, 0.25 μM
  Inhibition rate on human cancer cells: 100%
[7]; PC-3, 0.5 μM
  Inhibition rate on human cancer cells: 100%
[7]; PC-3, 1.0 μM
  Inhibition rate on human cancer cells: 100%
[7]; PC-3, 2.5 μM
  Inhibition rate on human cancer cells: 100%
[7]; PC-3, 5.0 μM
  Inhibition rate on human cancer cells: 100%
[8]; T24, 0.25 μM
  Inhibition rate on human cancer cells: 100%
[8]; T24, 0.5 μM
  Inhibition rate on human cancer cells: 100%
[8]; T24, 1.0 μM
  Inhibition rate on human cancer cells: 100%
[8]; T24, 2.5 μM
  Inhibition rate on human cancer cells: 100%
[8]; T24, 5.0 μM
  Inhibition rate on human cancer cells: 100%
